Reference: patent US10844023B2 (Washington University, priority 2017, dated 2020)

Key:
[1] = Solubility of library compounds in DMSO; type: physicochemical; details: stock concentration of 10 mM in DMSO
Description: A pharmacophore model was generated based on the interactions of HR1 and HR2 domains in the calculated structural model of Mfn2 in the closed conformation. The key features included hydrophobic interactions involving Mfn2 HR1: Val372 and Met376, and aromatic interactions and hydrogen bonding involving Mfn2 HR1 His380. […] A library comprising ˜14 million commercially available compounds was prepared in silico and evaluated using PHASE to fit these criteria. Top ranked hits were clustered, and filtered based on pharmacological properties using Qikprop. The top 55 (see TABLE 4) commercially available small molecules conforming to the model were selected for functional screening and purchased in 1 mg aliquots. Each compound was dissolved to a stock concentration of 10 mM in DMSO and applied to Mfn2 null MEFs overnight at a final concentration of […]. Eleven of the library members were not soluble in DMSO at the required concentration. The 44 fully soluble compounds were screened in groups of 6 at a time for cytotoxicity (calcein AM/ethidium homodimer staining; ThermoFisher LIVE/DEAD Assay cat #L3224) and fusogenicity (increase in mitochondrial aspect ratio; MitoTracker Orange staining) compared to cells treated overnight with […] of the parent HR1 367-384 mitofusin agonist peptide (positive control) or vehicle (DMSO). Images were acquired by confocal microscopy. Each compound was scored for fusogenicity (see e.g., FIG. 24A) and % cell death (see e.g., FIG. 24B). Pharmacophore model fit generally correlated with actual fusogenic activity (Pearson correlation coefficient r=0.214; see e.g., FIG. 24A, inset; TABLE 4).

[2] = test system: Mfn2 null MEFs; experiment: Mitochondrial elongation (aspect ratio) fusogenicity assay; type: cell-based, mouse; design: % long compare to B: dose or concentration left out as unconfirmed; details: for Aspect ratio (MEAN ± SEM) / % long compare to B: Mfn2 null MEFs; for Aspect ratio (MEAN ± SEM): overnight, treatment with 1 μM compound (footnote); for Fusogenicity Rank: rank order of aspect ratio among 44 soluble library compounds; for % long compare to B: mitochondrial elongation relative to Cpd B (B01 = 100), compound overnight as printed (FIG. 48)
[3] = Liver microsome stability; type: in vitro ADME
Description: (§1) Plasma protein binding was measured using equilibrium dialysis; % bound=(1-[free compound in dialysate]/[total compound in retentate])×100. Plasma stability of […] compound in clarified freeze-thawed plasma was assessed by LC-MS/MS of supernatants after protein precipitation; 120 min data are reported for studies including 0, 10, 30, 60, and 120 min. Microsome stability of […] compound in liver microsomes (0.5 mg/ml) after 0, 5, 10, 20, 30, 60 min. incubation was assessed by LC/MS/MS of reaction extracts.

[4] = Plasma protein binding (equilibrium dialysis); type: in vitro ADME
Description: as §1

SMILES | Solubility in DMSO at required concentration [1] | Aspect ratio (MEAN ± SEM) [2] | Fusogenicity Rank [2] | also measured
Cc1cc(C)nc(SCC(C)Cn2c(N3CCC(C(N)=O)CC3)nc3c2c(=O)[nH]c(=O)n3C)n1 (stereo not shown) [1-(7-{3-[(4,6-dimethylpyrimidin-2-yl)sulfanyl]-2-methylpropyl}-3-methyl-2,6-dioxo-2,3,6,7-tetrahydro-1H-purin-8-yl)piperidine-4-carboxamide] | Insol- uble | – | – | –
CCC(Sc1nc2cc(OC)c(OC)cc2c2nc(CCn3nc(C)cc3C)nn12)C(=O)Nc1ccc(F)cc1 (stereo not shown) [2-({2-[2-(3,5-dimethyl-1H-pyrazol-1-yl)ethyl]-8,9-dimethoxy-[1,2,4]triazolo[1,5-c]quinazolin-5-yl]sulfanyl)-N-(4-fluorophenyl)butanamide] | Insol- uble | – | – | –
CC(=O)NC12CC3CC(C1)CC(C(=O)NCCSCc1ccc(C)cc1)(C3)C2 [3-acetamido-N-(2-{[(4-methylphenyl)methyl]sulfanyl}ethyl)adamantane-1-carboxamide] | Insol- uble | – | – | –
Cc1ccc(C(=O)C(C)Sc2nnc3c(=O)n(-c4ccccc4)ccn23)cc1C (stereo not shown) [3-{[1-(3,4-dimethylphenyl)-1-oxopropan-2-yl]sulfanyl}-7-phenyl-7H,8H-[1,2,4]triazolo[4,3-a]pyrazin-8-one] | Insol- uble | – | – | –
Cc1ccc(C(=O)C(C)Sc2nnc3c(=O)n(-c4ccc(Br)cc4)ccn23)cc1C (stereo not shown) [7-(4-bromophenyl)-3-{[1-(3,4-dimethylphenyl)-1-oxopropan-2-yl]sulfanyl}-7H,8H-[1,2,4]triazolo[4,3-a]pyrazin-8-one] | Insol- uble | – | – | –
COc1cc(Cl)c(C)cc1N1C(=O)[C@@H]2C[C@H]1CN2Cc1cccn1-c1ncccn1 [(1S,4S)-2-(4-chloro-2-methoxy-5-methylphenyl)-5-{[1-(pyrimidin-2-yl)-1H-pyrrol-2-yl]methyl}-2,5-diazabicyclo[2.2.1]heptan-3-one] | Insol- uble | – | – | –
Cn1c(CCCNC(=O)NC2CCOCC2)nnc1C1CC1 [Mitolityn-6, 1-(3-(5-cyclopropyl-4-methyl-4H-1,2,4-triazol-3-yl)propyl)-3-(tetrahydro-2H-pyran-4-yl)urea] | – | – | – | Fusogenic activity ([2]; mitochondrial elongation / fusion): highest potency; Liver microsome stability [3]: stability in the liver microsome assay; Plasma protein binding [4]: low plasma protein binding
Cc1ccc(CSCCNC(=O)C2CCN(c3ccc4nnc(C(F)(F)F)n4n3)CC2)cc1 [N-(2-{[(4-methylphenyl)methyl]sulfanyl}ethyl)-1-[3-(trifluoromethyl)-[1,2,4]triazolo[4,3-b]pyridazin-6-yl]piperidine-4-carboxamide] | Insol- uble | – | – | –
Cc1cc(NC(=O)C(C)SCC(=O)Nc2ccc(NC(C)c3ccccc3)cc2)no1 (stereo not shown) [N-(5-methyl-1,2-oxazol-3-yl)-2-{[({4-[(1-phenylethyl)amino]phenyl}carbamoyl)methyl]sulfanyl}propanamide] | Insol- uble | – | – | –
CC(Sc1nc(C2CC2)nc2c1c(=O)[nH]c(=O)n2C1CC1)C(=O)NCC1CCCCC1 (stereo not shown) [N-(cyclohexylmethyl)-2-({2,8-dicyclopropyl-5,7-dioxo-5H,6H,7H,8H-pyrimido[4,5-d][1,3]diazin-4-yl}sulfanyl)propanamide] | Insol- uble | – | – | –
Cc1ccc(SC(C)C(=O)Nc2ccc(NS(=O)(=O)c3ccc4c(c3)OCCCO4)cc2)cc1 (stereo not shown) [N-[4-(3,4-dihydro-2H-1,5-benzodioxepine-7-sulfonamido)phenyl]-2-[(4-methylphenyl)sulfanyl]propanamide] | Insol- uble | – | – | –
CCc1nnc(SC(CC)C(=O)N(CC)c2cccc(C)c2)c2cc3occc3n12 (stereo not shown) [N-ethyl-2-({12-ethyl-5-oxa-1,10,11-triazatricyclo[6.4.0.0^2,6]dodeca-2(6),3,7,9,11-pentaen-9-yl}sulfanyl)-N-(3-methylphenyl)butanamide] | Insol- uble | – | – | –
CCC(C)NC(=O)c1ccccc1NC(=O)C(C)Sc1ccc(C)cc1 (stereo not shown) [drawing 236, N-(butan-2-yl)-2-{2-[(4-methylphenyl)sulfanyl]propanamido}benzamide] | – | 3.3 ± 0.4 | 29 | –
c1ccc(CSCCc2nc(C3CCOC3)no2)cc1 (stereo not shown) [drawing 238, 5-[2-(benzylsulfanyl)ethyl]-3-(oxolan-3-yl)-1,2,4-oxadiazole] | – | 3.4 ± 0.6 | 28 | –
CC(Sc1ccc(Br)cc1)C(=O)Nc1ccc2c(c1)OCCO2 (stereo not shown) [drawing 239, 2-[(4-bromophenyl)sulfanyl]-N-(2,3-dihydro-1,4-benzodioxin-6-yl)propanamide] | – | 3.2 ± 0.5 | 33 | –
Cc1ccc(C(=O)C(C)Sc2nnc3c(=O)n(-c4ccc(C)c(C)c4)ccn23)cc1C (stereo not shown) [drawing 240, 7-(3,4-dimethylphenyl)-3-{[1-(3,4-dimethylphenyl)-1-oxopropan-2-yl]sulfanyl}-7H,8H-[1,2,4]triazolo[4,3-a]pyrazin-8-one] | – | 3.9 ± 0.8 | 19 | –
O=C(NCCSCc1ccsc1)C1CC2CCCC(C1)C2=O (stereo not shown) [drawing 241, 9-oxo-N-(2-{[(thiophen-3-yl)methyl]sulfanyl}ethyl)bicyclo[3.3.1]nonane-3-carboxamide] | – | 4.4 ± 0.6 | 14 | –
CC(Sc1nnc(N2CCOCC2)n1Cc1ccccc1)C(=O)Nc1ccc2c(c1)OCO2 (stereo not shown) [drawing 242, N-(2H-1,3-benzodioxol-5-yl)-2-{[4-benzyl-5-(morpholin-4-yl)-4H-1,2,4-triazol-3-yl]sulfanyl}propanamide] | – | 2.5 ± 0.6 | 43 | –
Cc1ccc(N2C[C@@H]3CC[C@H](C2)N(Cc2ccccn2)C3=O)nn1 [drawing 245, (1S,5R)-3-(6-methylpyridazin-3-yl)-6-[(pyridin-2-yl)methyl]-3,6-diazabicyclo[3.2.2]nonan-7-one] | – | 3.0 ± 0.4 | 36 | –
Cc1ccc(SC2CCN(Cc3cc4n(n3)CCNC4)CC2)cc1 [drawing 246, 4-[(4-methylphenyl)sulfanyl]-1-({4H,5H,6H,7H-pyrazolo[1,5-a]pyrazin-2-yl}methyl)piperidine] | – | 2.9 ± 0.2 | 39 | –
CC(/N=N/C(=N)SC1CC(=O)N(c2cccc(C(=O)O)c2)C1=O)c1ccccc1 (stereo not shown) [drawing 247, 3-(2,5-dioxo-3-{[(E)-N-[(1-phenylethyl)imino]carbamimidoyl]sulfanyl}pyrrolidin-1-yl)benzoic acid] | – | 3.3 ± 0.0 | 31 | –
CCOc1ccccc1NC(=O)CSCc1cc(=O)c2ccc(C)c(C)c2[nH]1 [drawing 248, 2-{[(7,8-dimethyl-4-oxo-1,4-dihydroquinolin-2-yl)methyl]sulfanyl}-N-(2-ethoxyphenyl)acetamide] | – | 3.7 ± 0.6 | 24 | –
O=C(CSCC(=O)N1CCCc2ccccc21)Nc1ccccc1 [drawing 249, 2-{[2-oxo-2-(1,2,3,4-tetrahydroquinolin-1-yl)ethyl]sulfanyl}-N-phenylacetamide] | – | 2.4 ± 0.4 | 44 | –
Cc1ccc(NC(=O)CC2SC(NC(c3ccc(C(C)C)cc3)c3c(O)[nH]c(=O)[nH]c3=O)=NC2=O)c(C)c1 (stereo not shown) [drawing 252, N-(2,4-dimethylphenyl)-2-(2-{[(6-hydroxy-2,4-dioxo-1,2,3,4-tetrahydropyrimidin-5-yl)[4-(propan-2-yl)phenyl]methyl]amino}-4-oxo-4,5-dihydro-1,3-thiazol-5-yl)acetamide] | – | 3.1 ± 0.3 | 35 | –
O=C(NCCCCc1ccccc1)Nc1ccccc1 [pA, 3-phenyl-1-(4-phenylbutyl)urea] | – | – | – | % long compare to B [2]: 59%
NC(=O)c1c(NC(=O)CCCc2ccccc2)sc2c1CCC2 [pB, 2-(4-phenylbutanamido)-4H,5H,6H-cyclopenta[b]thiophene-3-carboxamide] | – | – | – | % long compare to B [2]: 6%
